Assays:
[1] = system: 5-LO mediated product synthesis; experiment: 5-LO mediated product synthesis in monocytes stimulated with LPS plus fMLP; assay type: cell-based; conditions: Homo sapiens, Monocyte
[2] = biological target: T1, 5-LO (Homo sapiens, UniProt P09917); experiment: 5-LO mediated product synthesis in HEK293 cells transfected with only 5-LO; assay type: cell-based; conditions: 2.5 µM A23187 plus 3 µM AA (Figure 7)
T1 sequence (P09917 1-674): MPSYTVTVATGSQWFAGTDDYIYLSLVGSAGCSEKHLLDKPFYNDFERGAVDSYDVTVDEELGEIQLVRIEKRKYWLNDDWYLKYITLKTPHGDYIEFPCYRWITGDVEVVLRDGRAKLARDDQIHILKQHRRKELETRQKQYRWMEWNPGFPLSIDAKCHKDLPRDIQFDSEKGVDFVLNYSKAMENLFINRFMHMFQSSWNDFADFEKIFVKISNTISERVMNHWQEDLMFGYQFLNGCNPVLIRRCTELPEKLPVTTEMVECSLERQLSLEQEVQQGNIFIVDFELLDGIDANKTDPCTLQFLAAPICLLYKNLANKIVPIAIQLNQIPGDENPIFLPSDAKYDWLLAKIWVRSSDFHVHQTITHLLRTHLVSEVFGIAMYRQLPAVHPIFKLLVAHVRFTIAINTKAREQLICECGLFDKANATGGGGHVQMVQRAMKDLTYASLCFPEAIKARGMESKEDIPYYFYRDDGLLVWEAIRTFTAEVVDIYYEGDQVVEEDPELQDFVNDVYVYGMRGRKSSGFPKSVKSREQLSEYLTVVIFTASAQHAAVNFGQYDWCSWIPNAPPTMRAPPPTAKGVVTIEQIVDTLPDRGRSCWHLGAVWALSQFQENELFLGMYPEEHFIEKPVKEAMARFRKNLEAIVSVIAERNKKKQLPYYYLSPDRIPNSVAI
Experimental: Compound 9hj inhibited 5-LO mediated product synthesis in HEK293 cells transfected with only 5-LO, with IC50 of 900 nM. […] After preincubation of cells with 9hj for 15 min at 37°C, cells were stimulated with 2.5 µM A23187 plus 3 µM AA for 10 min at 37°C. Data are expressed as percentage of vehicle control (0.1% DMSO). 100% controls correspond to 157.48 ng mL^-1 for 5-LO transfected cells and 155.15 ng mL^-1 for 5-LO plus FLAP transfected cells.

[3] = biological target: T2, 12-LO (Homo sapiens, UniProt P18054); experiment: 12-LO inhibition in A23187-stimulated neutrophils; assay type: cell-based; conditions: up to 10 µM in A23187-stimulated neutrophils
T2 construct: 12-LO or 15-LO, up to 10 µM in A23187-stimulated neutrophils; endogenous in cells; host or cells: A23187-stimulated neutrophils
T2 sequence (P18054 1-663): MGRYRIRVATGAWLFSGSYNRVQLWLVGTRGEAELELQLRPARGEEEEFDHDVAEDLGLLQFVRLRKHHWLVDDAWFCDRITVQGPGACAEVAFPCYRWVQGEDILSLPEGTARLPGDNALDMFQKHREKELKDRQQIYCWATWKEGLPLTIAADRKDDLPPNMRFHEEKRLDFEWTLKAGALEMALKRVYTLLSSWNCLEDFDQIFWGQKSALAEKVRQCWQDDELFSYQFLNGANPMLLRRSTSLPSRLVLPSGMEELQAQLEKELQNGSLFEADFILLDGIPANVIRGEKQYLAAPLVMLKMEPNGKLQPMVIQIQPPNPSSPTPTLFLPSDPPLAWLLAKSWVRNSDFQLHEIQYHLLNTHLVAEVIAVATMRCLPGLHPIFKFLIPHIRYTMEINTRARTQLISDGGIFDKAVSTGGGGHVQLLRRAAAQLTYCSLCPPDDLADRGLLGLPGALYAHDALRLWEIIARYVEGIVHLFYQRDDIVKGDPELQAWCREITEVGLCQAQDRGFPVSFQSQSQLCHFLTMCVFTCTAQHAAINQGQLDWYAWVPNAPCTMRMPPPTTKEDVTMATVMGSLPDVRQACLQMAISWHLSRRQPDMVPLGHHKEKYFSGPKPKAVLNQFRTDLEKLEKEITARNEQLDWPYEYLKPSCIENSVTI

[4] = biological target: T3, 15-LO (Homo sapiens, UniProt P16050); experiment: 15-LO inhibition in A23187-stimulated neutrophils; assay type: cell-based; conditions: up to 10 µM in A23187-stimulated neutrophils
T3 construct: 12-LO or 15-LO, up to 10 µM in A23187-stimulated neutrophils; endogenous in cells; host or cells: A23187-stimulated neutrophils
T3 sequence (P16050 1-662): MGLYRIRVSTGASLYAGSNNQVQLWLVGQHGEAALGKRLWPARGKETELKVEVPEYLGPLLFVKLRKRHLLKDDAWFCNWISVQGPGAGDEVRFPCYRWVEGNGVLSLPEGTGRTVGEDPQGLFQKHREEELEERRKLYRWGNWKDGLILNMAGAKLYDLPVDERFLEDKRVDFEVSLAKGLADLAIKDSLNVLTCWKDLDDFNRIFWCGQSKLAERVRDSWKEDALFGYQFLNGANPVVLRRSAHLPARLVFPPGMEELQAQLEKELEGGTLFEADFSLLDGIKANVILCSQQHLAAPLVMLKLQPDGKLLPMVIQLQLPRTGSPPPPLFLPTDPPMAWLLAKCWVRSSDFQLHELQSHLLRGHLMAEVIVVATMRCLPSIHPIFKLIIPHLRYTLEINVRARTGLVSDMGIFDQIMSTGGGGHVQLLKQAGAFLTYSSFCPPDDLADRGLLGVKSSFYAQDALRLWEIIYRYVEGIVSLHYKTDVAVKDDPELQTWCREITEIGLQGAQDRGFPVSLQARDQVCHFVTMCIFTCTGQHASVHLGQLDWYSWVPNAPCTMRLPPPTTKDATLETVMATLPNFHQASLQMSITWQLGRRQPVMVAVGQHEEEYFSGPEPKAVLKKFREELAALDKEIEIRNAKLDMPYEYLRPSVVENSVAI

[5] = biological target: T4, microsomal prostaglandin E synthase-1 (mPGES-1) (Homo sapiens, UniProt O14684); experiment: mPGES-1 inhibition; assay type: biochemical
T4 sequence (O14684 1-152): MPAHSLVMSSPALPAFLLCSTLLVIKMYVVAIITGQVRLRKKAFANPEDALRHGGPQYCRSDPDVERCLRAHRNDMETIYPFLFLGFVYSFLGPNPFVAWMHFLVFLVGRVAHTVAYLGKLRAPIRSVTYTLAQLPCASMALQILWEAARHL
Experimental: Compound 9hj inhibited microsomal prostaglandin E synthase-1 (mPGES-1) with IC50 of 5 µM.

SMILES: O=C(O)c1noc(-c2ccc(OCc3ccc4ccccc4n3)cc2)c1-c1ccc(Cl)cc1 [Compound 9hj, 4-(4-Chlorophenyl)-5-(4-(quinolin-2-ylmethoxy)phenyl)isoxazole-3-carboxylic acid]
- IC50 [1]: 8 nM
- IC50 [2]: 900 nM
- inhibition of 12-LO [3]: did not inhibit
- inhibition of 15-LO [4]: did not inhibit
- IC50 [5]: 5000 nM
